Where “and” joins values, the source holds several entries; their conditions need not be identical. Identical values can stand only once. Counter-ions that a name gives are not always drawn. Like-named read-outs stand apart in the source and are kept apart here.
Tests used:
Experiment in all cases: qHTS cell viability (CellTiter-Glo, 72 h; primary and follow-up small molecule screen)
Format in all cases: cell-based, human
MCC13 cells (VN-MCC) = system: MCC13 cells (VN-MCC)
MCC26 cells (VN-MCC) = system: MCC26 cells (VN-MCC)
UISO cells (VN-MCC) = system: UISO cells (VN-MCC)
WAGA cells (VP-MCC) = system: WAGA cells (VP-MCC)
MKL-1 cells (VP-MCC) = system: MKL-1 cells (VP-MCC)
MKL-2 cells (VP-MCC) = system: MKL-2 cells (VP-MCC)
[1] = follow-up screen, MCC13, replicate 1
[2] = follow-up screen, MCC13, replicate 2
[3] = follow-up screen, MCC13, replicate 3
[4] = follow-up screen, MCC26, replicate 1
[5] = follow-up screen, MCC26, replicate 2
[6] = follow-up screen, MCC26, replicate 3
[7] = follow-up screen, UISO, replicate 1
[8] = follow-up screen, UISO, replicate 2
[9] = follow-up screen, UISO, replicate 3
[10] = follow-up screen, WAGA, replicate 1
[11] = follow-up screen, WAGA, replicate 2
[12] = follow-up screen, WAGA, replicate 3
[13] = follow-up screen, MKL-1, replicate 1
[14] = follow-up screen, MKL-1, replicate 2
[15] = follow-up screen, MKL-1, replicate 3
[16] = follow-up screen, MKL-2, replicate 1
[17] = follow-up screen, MKL-2, replicate 2
[18] = follow-up screen, MKL-2, replicate 3

Compound	Area under the dose-response curve (AUC) MCC13 Replicate 1 (MCC13 cells (VN-MCC); [1])	Area under the dose-response curve (AUC) MCC13 Replicate 2 (MCC13 cells (VN-MCC); [2])	Area under the dose-response curve (AUC) MCC13 Replicate 3 (MCC13 cells (VN-MCC); [3])	Area under the dose-response curve (AUC) MCC26 Replicate 1 (MCC26 cells (VN-MCC); [4])	Area under the dose-response curve (AUC) MCC26 Replicate 2 (MCC26 cells (VN-MCC); [5])	Area under the dose-response curve (AUC) MCC26 Replicate 3 (MCC26 cells (VN-MCC); [6])	Area under the dose-response curve (AUC) UISO Replicate 1 (UISO cells (VN-MCC); [7])	Area under the dose-response curve (AUC) UISO Replicate 2 (UISO cells (VN-MCC); [8])	Area under the dose-response curve (AUC) UISO Replicate 3 (UISO cells (VN-MCC); [9])	Area under the dose-response curve (AUC) WAGA Replicate 1 (WAGA cells (VP-MCC); [10])	Area under the dose-response curve (AUC) WAGA Replicate 2 (WAGA cells (VP-MCC); [11])	Area under the dose-response curve (AUC) WAGA Replicate 3 (WAGA cells (VP-MCC); [12])	Area under the dose-response curve (AUC) MKL-1 Replicate 1 (MKL-1 cells (VP-MCC); [13])	Area under the dose-response curve (AUC) MKL-1 Replicate 2 (MKL-1 cells (VP-MCC); [14])	Area under the dose-response curve (AUC) MKL-1 Replicate 3 (MKL-1 cells (VP-MCC); [15])	Area under the dose-response curve (AUC) MKL-2 Replicate 1 (MKL-2 cells (VP-MCC); [16])	Area under the dose-response curve (AUC) MKL-2 Replicate 2 (MKL-2 cells (VP-MCC); [17])	Area under the dose-response curve (AUC) MKL-2 Replicate 3 (MKL-2 cells (VP-MCC); [18])	other results
CCN(CCO)CCCC(C)Nc1ccnc2cc(Cl)ccc12 (stereo not drawn) [Hydroxychloroquine sulfate]	495.6	487.6	467.0	423.8	423.8	468.3	504.6	448.6	420.1	540.2	519.3	458.7	541.8	486.3	499.9	454.2	416.6	490.5	–
CC(=O)[C@]1(O)Cc2c(O)c3c(c(O)c2[C@@H](O[C@H]2C[C@H](N)[C@H](O)[C@H](C)O2)C1)C(=O)c1ccccc1C3=O [Idarubicin hydrochloride]	321.5	353.4	356.2	293.6	292.8	227.6	184.7	180.9	186.4	205.3	258.0	233.3	222.7	242.3	233.3	203.6	200.3	265.0	–
Oc1ccc(C2=Cc3ccc(O)cc3OC2)cc1 [Idronoxil]	–	–	–	–	–	–	–	–	–	–	–	–	–	–	–	–	–	–	Area under the dose-response curve (AUC) (MCC13 cells (VN-MCC)): 415.6 and 455.9 and 456.9; Area under the dose-response curve (AUC) (MCC26 cells (VN-MCC)): 408.0 and 413.9 and 448.0; Area under the dose-response curve (AUC) (UISO cells (VN-MCC)): 422.5 and 447.1 and 401.0; Area under the dose-response curve (AUC) (WAGA cells (VP-MCC)): 395.2 and 366.0 and 386.6; Area under the dose-response curve (AUC) (MKL-1 cells (VP-MCC)): 285.6 and 303.3 and 334.8; Area under the dose-response curve (AUC) (MKL-2 cells (VP-MCC)): 351.5 and 302.3 and 331.4
CN(C(Cc1ccc(O[S+](=O)([O-])c2cccc3cnccc23)cc1)C(=O)N1CCN(c2ccccc2)CC1)[S+](=O)([O-])c1cccc2cnccc12 (stereo not drawn) [KN-62]	505.2	474.1	504.9	447.5	438.4	461.3	473.7	471.7	409.6	521.5	471.3	468.9	492.0	481.7	479.5	465.4	466.3	472.5	–
O=c1cc(-c2ccc(O)c(O)c2)oc2cc(O)cc(O)c12 [Luteolin]	522.6	523.6	493.6	469.7	436.1	492.5	505.5	498.3	457.3	542.7	525.5	485.9	484.8	451.1	471.1	469.9	500.3	460.5	–
CN(C)c1ccc(C(=C2C=CC(=[N+](C)C)C=C2)c2ccccc2)cc1.CN(C)c1ccc(C(=C2C=CC(=[N+](C)C)C=C2)c2ccccc2)cc1.O=C(O)C(=O)O.O=C([O-])C(=O)O.O=C([O-])C(=O)O [Malachite green oxalate]	–	–	–	–	–	–	–	–	–	–	–	–	–	–	–	–	–	–	Area under the dose-response curve (AUC) MCC13 Replicate 1 (MCC13 cells (VN-MCC)): 284.7; Area under the dose-response curve (AUC) MCC13 Replicate 2 (MCC13 cells (VN-MCC)): 297.6; Area under the dose-response curve (AUC) MCC13 Replicate 3 (MCC13 cells (VN-MCC)): 312.3; Area under the dose-response curve (AUC) MCC26 Replicate 1 (MCC26 cells (VN-MCC)): 302.0; Area under the dose-response curve (AUC) MCC26 Replicate 2 (MCC26 cells (VN-MCC)): 333.8; Area under the dose-response curve (AUC) MCC26 Replicate 3 (MCC26 cells (VN-MCC)): 303.0; Area under the dose-response curve (AUC) UISO Replicate 1 (UISO cells (VN-MCC)): 285.6; Area under the dose-response curve (AUC) UISO Replicate 2 (UISO cells (VN-MCC)): 315.1; Area under the dose-response curve (AUC) UISO Replicate 3 (UISO cells (VN-MCC)): 271.1; Area under the dose-response curve (AUC) WAGA Replicate 1 (WAGA cells (VP-MCC)): 353.3; Area under the dose-response curve (AUC) WAGA Replicate 2 (WAGA cells (VP-MCC)): 347.4; Area under the dose-response curve (AUC) WAGA Replicate 3 (WAGA cells (VP-MCC)): 369.9; Area under the dose-response curve (AUC) MKL-1 Replicate 1 (MKL-1 cells (VP-MCC)): 266.3; Area under the dose-response curve (AUC) MKL-1 Replicate 2 (MKL-1 cells (VP-MCC)): 258.0; Area under the dose-response curve (AUC) MKL-1 Replicate 3 (MKL-1 cells (VP-MCC)): 280.5; Area under the dose-response curve (AUC) MKL-2 Replicate 1 (MKL-2 cells (VP-MCC)): 272.5; Area under the dose-response curve (AUC) MKL-2 Replicate 2 (MKL-2 cells (VP-MCC)): 267.6; Area under the dose-response curve (AUC) MKL-2 Replicate 3 (MKL-2 cells (VP-MCC)): 282.8
CN(C)c1ccc(C(=C2C=CC(=[N+](C)C)C=C2)c2ccc(N(C)C)cc2)cc1.[Cl-] [Methylrosaniline chloride]	–	–	–	–	–	–	–	–	–	–	–	–	–	–	–	–	–	–	Area under the dose-response curve (AUC) MCC13 Replicate 1 (MCC13 cells (VN-MCC)): 337.3; Area under the dose-response curve (AUC) MCC13 Replicate 2 (MCC13 cells (VN-MCC)): 353.3; Area under the dose-response curve (AUC) MCC13 Replicate 3 (MCC13 cells (VN-MCC)): 322.2; Area under the dose-response curve (AUC) MCC26 Replicate 1 (MCC26 cells (VN-MCC)): 379.4; Area under the dose-response curve (AUC) MCC26 Replicate 2 (MCC26 cells (VN-MCC)): 341.7; Area under the dose-response curve (AUC) MCC26 Replicate 3 (MCC26 cells (VN-MCC)): 374.7; Area under the dose-response curve (AUC) UISO Replicate 1 (UISO cells (VN-MCC)): 320.8; Area under the dose-response curve (AUC) UISO Replicate 2 (UISO cells (VN-MCC)): 340.7; Area under the dose-response curve (AUC) UISO Replicate 3 (UISO cells (VN-MCC)): 296.1; Area under the dose-response curve (AUC) WAGA Replicate 1 (WAGA cells (VP-MCC)): 370.0; Area under the dose-response curve (AUC) WAGA Replicate 2 (WAGA cells (VP-MCC)): 348.5; Area under the dose-response curve (AUC) WAGA Replicate 3 (WAGA cells (VP-MCC)): 356.4; Area under the dose-response curve (AUC) MKL-1 Replicate 1 (MKL-1 cells (VP-MCC)): 316.1; Area under the dose-response curve (AUC) MKL-1 Replicate 2 (MKL-1 cells (VP-MCC)): 287.7; Area under the dose-response curve (AUC) MKL-1 Replicate 3 (MKL-1 cells (VP-MCC)): 301.6; Area under the dose-response curve (AUC) MKL-2 Replicate 1 (MKL-2 cells (VP-MCC)): 279.9; Area under the dose-response curve (AUC) MKL-2 Replicate 2 (MKL-2 cells (VP-MCC)): 290.8; Area under the dose-response curve (AUC) MKL-2 Replicate 3 (MKL-2 cells (VP-MCC)): 309.2

Source: publication PMC11822212, “High-throughput screening identifies Aurora kinase B as a critical therapeutic target for Merkel cell carcinoma” (Nature Communications, 2025)
